From US20250304549A1, “HYDROXYAMIDE DERIVATIVE AND USE THEREOF” (SICHUAN HUIYU PHARMACEUTICAL CO., LTD., priority 2022, published 2025)
Where a name gives a salt, the structure may show the parent alone.

Experiments:
LSD1 = LSD1 (Homo sapiens (Human), UniProt O60341); assay: In vitro enzyme inhibition assay - LSD1 (HTRF); assay type: biochemical
HDAC8 = HDAC8 (Homo sapiens (Human), UniProt Q9BY41); assay: In vitro enzyme inhibition assay - HDAC (HDAC-Glo I/II), HDAC8; assay type: biochemical; conditions: read-out: HDAC IC50 (nM) HDAC 8
Experimental: 2. In Vitro Enzyme Inhibition Assay—HDAC
The effect of the compound on the enzymatic activity of pan-HDAC and two isoforms (HDAC1 and HDAC8) was examined using the HDAC-Glo I/II Assay and Screening System assay to assess the level of inhibition of HDAC protease activity and selectivity in each isoform. The proteins and detection reagents were from the HDAC-Glo™ I/II Assay and Screening System (Promega). A 1 mM stock solution of the compound was prepared in DMSO and diluted in a 5-fold gradient to create a series of 8 concentrations, and a specific volume of the highest concentration was diluted 25 times with HDAC Buffer to obtain 4× working solution of the compound. […] The 384-well plate was then read on a multifunctional microplate reader, with the Luminescence channel selected to record Luminescence values (RLU). The inhibition rate was calculated using the following formula: […]
Note: ‘Negative’ refers to the group without the inhibitor; ‘Blank’ refers to the group without the enzyme.
The IC50 value was calculated by fitting the inhibition rate by GraphPad Prism software, employing log (inhibitor) vs. response-Variable Slope (four parameters) model.

NCI-H1417 cells = assay: In vitro cell inhibition assay - H1417 cell proliferation (CellTiter-Glo); assay type: cell-based; conditions: Homo sapiens, NCI-H1417, H1417 small cell lung cancer cell proliferation
Method in brief: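 Cells exposed to 8 compound concentrations (5-fold dilutions) in BEGM with 10% FBS for 7 days at 37° C., 5% CO2. Viable cells measured by CellTiter-Glo luminescence; inhibition versus no-inhibitor and no-cell controls, IC50 fitted.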

pan-HDAC = assay: In vitro enzyme inhibition assay - HDAC (HDAC-Glo I/II), pan-HDAC; assay type: biochemical
Method in brief: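 Inhibition was measured with the HDAC-Glo I/II luminescent assay, testing compound as an 8-point, 5-fold dilution series from a 1 mM DMSO stock. Luminescence (RLU) was normalized to no-inhibitor and no-enzyme controls, and IC50 was derived by four-parameter variable-slope fitting.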

NCI-H69 cells = assay: In vitro cell inhibition assay - NCI-H69 cell proliferation (CellTiter-Glo); assay type: cell-based; conditions: Homo sapiens, NCI-H69, H69 small cell lung cancer cell proliferation
Method in brief: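 CellTiter-Glo luminescence measured viability after a 7-day, 37° C. exposure of NCI-H69 cells (1×10^3/well) to an 8-point, 5-fold dilution series in RPMI-640/20% FBS. Inhibition was normalised to untreated and cell-free wells and IC50 derived by curve fitting.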

Sequence of HDAC8 (Q9BY41 whole entry): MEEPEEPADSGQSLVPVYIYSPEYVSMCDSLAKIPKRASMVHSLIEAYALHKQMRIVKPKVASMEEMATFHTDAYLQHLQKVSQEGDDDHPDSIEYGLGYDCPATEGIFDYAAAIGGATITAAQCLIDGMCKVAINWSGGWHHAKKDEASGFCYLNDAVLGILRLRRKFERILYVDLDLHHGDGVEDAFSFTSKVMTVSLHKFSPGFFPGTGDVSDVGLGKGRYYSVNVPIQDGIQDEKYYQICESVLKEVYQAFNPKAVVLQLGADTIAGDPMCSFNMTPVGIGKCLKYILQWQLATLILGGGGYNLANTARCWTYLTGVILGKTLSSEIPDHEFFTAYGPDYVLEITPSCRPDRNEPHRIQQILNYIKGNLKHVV

IC50 (LSD1) [nM]	IC50 (HDAC8) [nM]	IC50 (NCI-H1417 cells) [nM]	IC50 (pan-HDAC) [nM]	IC50 (NCI-H69 cells) [nM]	Structure (SMILES)
1.38	186	48.9	134		COc1cc(N2CCC(N)CC2)nc(-c2ccc(C#N)c(F)c2)c1-c1ccc(OCCCCCCC(=O)NO)c(O)c1 [Example 27, 7-(4-(6-(4-aminopiperidin-1-yl)-2-(4-cyano-3-fluorophenyl)-4-methoxypyridin-3-yl)-2-hydroxyphenoxy)-N-hydroxyheptanamide hydrochloride]
9.46	578	15.4	13.8	145	COc1ccc(-c2cnc(N3CCC(N)(CCc4ccc(/C=C/C(=O)NO)cc4)CC3)c(C#N)c2-c2ccc(C#N)c(F)c2)cc1O [Example 86, (E)-3-(4-(2-(4-amino-1-(3-cyano-4-(4-cyano-3-fluorophenyl)-5-(3-hydroxy-4-methoxyphenyl)pyridin-2-yl)piperidin-4-yl)ethyl)phenyl)-N-hydroxyacrylamide formate]
0.74	400	6.21	5.49	65.5	CN(C)c1ccc(-c2cnc(N3CCC(NCc4ccc(/C=C/C(=O)NO)cc4)CC3)c(C#N)c2-c2ccc(C#N)c(F)c2)cc1O [Example 153, (E)-3-(4-(((1-(3-Cyano-4-(4-cyano-3-fluorophenyl)-5-(4-(dimethylamino)-3-hydroxyphenyl)pyridin-2-yl)piperidin-4-yl)amino)methyl)phenyl)-N-hydroxyacrylamide formate]
0.58	23.7	11.5	20	314	COc1ccc(-c2cnc(N3CCC(NCC4CC=C(/C=C/C(=O)NO)CC4)CC3)c(C#N)c2-c2ccc(C#N)c(F)c2)cc1O (centres unmarked) [Example 155, (E)-3-(4-(((1-(3-Cyano-4-(4-cyano-3-fluorophenyl)-5-(3-hydroxy-4-methoxyphenyl)pyridin-2-yl)piperidin-4-yl)amino)methyl)cyclohex-1-en-1-yl)-N-hydroxyacrylamide formate]
0.73	87.8	93.6	0.61	250	COc1cc(O)c(-c2cnc(N3CCC(NCc4ccc(/C=C/C(=O)NO)cc4)CC3)c(C#N)c2-c2ccc(C#N)c(F)c2)cc1O [Example 158, (E)-3-(4-(((1-(3-Cyano-4-(4-cyano-3-fluorophenyl)-5-(2,5-dihydroxy-4-methoxyphenyl)pyridin-2-yl)piperidin-4-yl)amino)methyl)phenyl)-N-hydroxyacrylamide trifluoroacetate]
1.12	184	5.59	1.48	80.6	COc1ccc(-c2cnc(N3CCC(NCc4ccc(/C=C/C(=O)NO)nn4)CC3)c(C#N)c2-c2ccc(C#N)c(F)c2)cc1O [Example 160, (E)-3-(6-(((1-(3-Cyano-4-(4-cyano-3-fluorophenyl)-5-(3-hydroxy-4-methoxyphenyl)pyridin-2-yl)piperidin-4-yl)amino)methyl)pyridazin-3-yl)-N-hydroxyacrylamide formate]
0.58	304	3.13	6.83	65	Cc1c(O)cc(-c2cnc(N3CCC(NCc4ccc(/C=C/C(=O)NO)cc4)CC3)c(C#N)c2-c2ccc(C#N)c(F)c2)cc1F [Example 161, (E)-3-(4-(((1-(3-Cyano-4-(4-cyano-3-fluorophenyl)-5-(3-fluoro-5-hydroxy-4-methylphenyl)pyridin-2-yl)piperidin-4-yl)amino)methyl)phenyl)-N-hydroxyacrylamide formate]
0.44	332	2.66	38.1	432	COc1ccc(-c2cnc(N3CCC(NCCOc4ccc(C(=O)NO)cc4)CC3)c(C#N)c2-c2ccc(C#N)c(F)c2)cc1O [Example 164, 4-(2-[(1-(3-Cyano-4-(4-cyano-3-fluorophenyl)-5-(3-hydroxy-4-methoxyphenyl)pyridin-2-yl)piperidin-4-yl)amino]ethoxy)-N-hydroxybenzamide formate]
1.35	145	11.4	7.31	114	COc1cc(OC)c(-c2cnc(N3CCC(NCc4ccc(/C=C/C(=O)NO)cc4)CC3)c(C#N)c2-c2ccc(C#N)c(F)c2)cc1O [Example 165, (E)-3-(4-(((1-(3-Cyano-4-(4-cyano-3-fluorophenyl)-5-(5-hydroxy-2,4-dimethoxyphenyl)pyridin-2-yl)piperidin-4-yl)amino)methyl)phenyl-N-hydroxyacrylamide hydrochloride]
15.1	64	61.6	2.27	208	COc1ccc(-c2cnc(N3CCC(NCc4ccc(/C=C/C(=O)NO)cc4)CC3)c(C#N)c2-c2ccc(C#N)c(O)c2)cc1O [Example 166, (E)-3-(4-(((1-(3-Cyano-4-(4-cyano-3-hydroxyphenyl)-5-(3-hydroxy-4-methoxyphenyl)pyridin-2-yl)piperidin-4-yl)amino)methyl)phenyl-N-hydroxyacrylamide hydrochloride]
1.34	250	5.23	7.35	65.6	COc1c(O)cc(-c2cnc(N3CCC(NCc4ccc(/C=C/C(=O)NO)cc4)CC3)c(C#N)c2-c2ccc(C#N)c(F)c2)cc1F [Example 168, (E)-3-(4-(((1-(3-Cyano-4-(4-cyano-3-fluorophenyl)-5-(3-fluoro-5-hydroxy-4-methoxyphenyl)pyridin-2-yl)piperidin-4-yl)amino)methyl)phenyl)-N-hydroxyacrylamide formate]
0.82	252	2.23	114	613	COc1ccc(-c2cnc(N3CCC(NCc4ccc5sc(C(=O)NO)cc5c4)CC3)c(C#N)c2-c2ccc(C#N)c(F)c2)cc1O [Example 173, 5-(((1-(3-Cyano-4-(4-cyano-3-fluorophenyl)-5-(3-hydroxy-4-methoxyphenyl)pyridin-2-yl)piperidin-4-yl)amino)methyl)-N-hydroxybenzo[b] thiophene-2-carboxamide formate]
0.65	1710	4.21	588	906	COc1ccc(-c2cnc(N3CCC(NCc4ccc(/C=C/C(=O)NO)o4)CC3)c(C#N)c2-c2ccc(C#N)c(F)c2)cc1O [Example 178, (E)-3-(5-(((1-(3-Cyano-4-(4-cyano-3-fluorophenyl)-5-(3-hydroxy-4-methoxyphenyl)pyridin-2-yl)piperidin-4-yl)amino)methyl)furan-2-yl)-N-hydroxyacrylamide formate]
0.11	1240	3.63	23.4	5040	COc1ccc(-c2cnc(N3CCC(NCc4ccc(/C=C/C(=O)NO)c5[nH]ncc45)CC3)c(C#N)c2-c2ccc(C#N)c(F)c2)cc1O [Example 180, (E)-3-(4-(((1-(3-Cyano-4-(4-cyano-3-fluorophenyl)-5-(3-hydroxy-4-methoxyphenyl)pyridin-2-yl)piperidin-4-yl)amino)methyl)-1H-indazol-7-yl)-N-hydroxyacrylamide formate]
0.09	3720	1.49	970	742	COc1ccc(-c2cnc(N3CCC(NCc4ccc(OC(C)C(=O)NO)cc4)CC3)c(C#N)c2-c2ccc(C#N)c(F)c2)cc1O (centres unmarked) [Example 183, 2-(4-(((1-(3-Cyano-4-(4-cyano-3-fluorophenyl)-5-(3-hydroxy-4-methoxyphenyl)pyridin-2-yl)piperidin-4-yl)amino)methyl)phenoxy)-N-hydroxypropanamide formate]
3.9	2160	6.16	60.1	275	CC(C)(O)COc1ccc(-c2cnc(N3CCC(NCc4cnc(CCC(=O)NO)s4)CC3)c(C#N)c2-c2ccc(C#N)c(F)c2)cc1O [Example 185, 3-(5-((1-(3-Cyano-4-(4-cyano-3-fluorophenyl)-5-(3-hydroxy-4-(2-hydroxy-2-methylpropoxy)phenyl)pyridin-2-yl)piperidin-4-yl)amino)methyl)thiazol-2-yl)-N-hydroxypropanamide formate]

Structure (SMILES)	IC50 (LSD1) [nM]	IC50 (HDAC8) [nM]	IC50 (NCI-H1417 cells) [nM]	IC50 (pan-HDAC) [nM]	IC50 (NCI-H69 cells) [nM]
N#Cc1ccc(-c2cc(C(=O)N3C4CCC3CC(N)C4)sc2-c2ccc(OCCCCCCC(=O)NO)c(O)c2)cc1F (centres unmarked) [Example 32, 7-(4-(5-(3-amino-8-azabicyclo[3.2.1]octane-8-carbonyl)-3-(4-cyano-3-fluorophenyl)thiophen-2-yl)-2-hydroxyphenoxy)-N-hydroxyheptanamide hydrochloride]	0.35	279	54.7	14	
